Test results published in ChEMBL document CHEMBL1201862, “PubChem BioAssay data set” (2004).
Activity calls are given as the source filed them.

Experiments:
[1] = cytotoxicity in HEK-293T cells, dose response, cytotoxicity control for BCR NF-kB inhibitor project, luminescence, B-cell screen hits (AID 489021); type: functional, cell-based;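 note: HEK-293T cells carrying an NF-kB luciferase reporter; cells exposed to compound for about 14 hours before viability readout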
INS1 = assay: beta cell apoptosis inhibitors, cytokine rescue, dose response, luminescence, retest (AID 449756); type: functional, cell-based; details: Rattus norvegicus;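 note: cell death triggered by IL-1 beta plus TNF-alpha plus IFN-gamma mixture; protective hits raise ATP signal compared with cytokine alone wells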
[2] = molecular target: G-protein coupled receptor 55 (Homo sapiens, UniProt Q9Y2T6); assay: GPR55 agonists via beta-arrestin recruitment, primary screen, imaging, U2OS cells, beta-arrestin-GFP redistribution (AID 1961); type: functional
G-protein coupled receptor 55, sequence (Q9Y2T6 whole entry): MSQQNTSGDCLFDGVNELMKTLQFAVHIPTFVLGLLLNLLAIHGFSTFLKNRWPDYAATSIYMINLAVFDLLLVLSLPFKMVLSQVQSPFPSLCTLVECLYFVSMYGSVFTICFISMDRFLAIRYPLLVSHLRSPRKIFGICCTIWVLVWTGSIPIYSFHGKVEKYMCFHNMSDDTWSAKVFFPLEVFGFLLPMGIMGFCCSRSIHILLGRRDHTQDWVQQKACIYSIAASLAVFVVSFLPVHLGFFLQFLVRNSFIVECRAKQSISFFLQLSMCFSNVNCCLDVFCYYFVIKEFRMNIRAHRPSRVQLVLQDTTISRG

[3] = molecular target: T1, High affinity choline transporter 1 (Homo sapiens, UniProt Q9GZV3); assay: CHT inhibitors, dose response, cell-based, 5-point CRC, membrane potential dye (AID 504840); type: functional
T1 sequence (Q9GZV3 whole entry): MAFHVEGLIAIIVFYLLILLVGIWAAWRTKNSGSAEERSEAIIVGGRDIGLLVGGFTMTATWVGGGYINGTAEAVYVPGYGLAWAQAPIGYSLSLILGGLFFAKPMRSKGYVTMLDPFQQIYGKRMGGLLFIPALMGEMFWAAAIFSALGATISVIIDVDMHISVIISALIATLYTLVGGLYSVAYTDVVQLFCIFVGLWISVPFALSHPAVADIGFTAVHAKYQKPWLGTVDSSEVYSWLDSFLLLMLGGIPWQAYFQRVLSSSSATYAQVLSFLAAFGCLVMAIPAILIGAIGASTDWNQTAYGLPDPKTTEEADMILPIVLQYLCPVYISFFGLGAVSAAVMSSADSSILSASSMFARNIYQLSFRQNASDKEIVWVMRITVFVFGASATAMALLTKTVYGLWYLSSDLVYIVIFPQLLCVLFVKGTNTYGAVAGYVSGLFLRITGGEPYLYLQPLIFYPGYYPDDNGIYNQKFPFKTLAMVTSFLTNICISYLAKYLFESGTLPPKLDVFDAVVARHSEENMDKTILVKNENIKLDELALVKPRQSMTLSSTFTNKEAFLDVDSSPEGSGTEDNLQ

[4] = inhibitors of intracellular T. cruzi replication, confirmation, NIH3T3 host cells, beta-gal luminescence (AID 2044); type: functional, cell-based;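 note: intracellular parasites grown in NIH/3T3 mouse fibroblasts as host cells; luminescent beta-galactosidase reporter signal from transgenic T. cruzi replicating inside host cells; inhibitors lower the luminescence signal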
Cysteine protease ATG4B = molecular target: T2, Cysteine protease ATG4B (Homo sapiens, UniProt Q9Y4P1); type: functional;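 note: Fluorescence-based dose-response confirmation assay measuring inhibition of ATG4B activity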
T2 sequence (Q9Y4P1 whole entry): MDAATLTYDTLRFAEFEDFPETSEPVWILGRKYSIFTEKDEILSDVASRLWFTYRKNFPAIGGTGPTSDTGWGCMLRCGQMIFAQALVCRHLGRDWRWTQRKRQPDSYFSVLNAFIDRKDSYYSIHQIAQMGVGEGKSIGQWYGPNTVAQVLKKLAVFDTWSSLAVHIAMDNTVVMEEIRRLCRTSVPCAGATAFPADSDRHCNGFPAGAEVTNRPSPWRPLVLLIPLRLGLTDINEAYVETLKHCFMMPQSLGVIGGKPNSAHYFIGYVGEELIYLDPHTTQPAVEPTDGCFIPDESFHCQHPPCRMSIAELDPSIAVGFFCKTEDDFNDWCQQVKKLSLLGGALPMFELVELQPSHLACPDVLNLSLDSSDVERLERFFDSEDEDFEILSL

[5] = cytotoxicity toward NIH3T3 fibroblasts, dose response, counter-screen, cell-based, ATP luminescence, mouse fibroblasts (AID 2010); type: functional;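 note: cells exposed to compound for about 90 hours before reading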
Phospholipase A2 = Phospholipase A2 (Homo sapiens, UniProt P04054); type: functional;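 note: confirmatory dose-response counterscreen on phospholipase A2, testing hits that came from an ultra-high-throughput screen for ATG4B inhibitors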
Phospholipase A2, sequence (P04054 whole entry): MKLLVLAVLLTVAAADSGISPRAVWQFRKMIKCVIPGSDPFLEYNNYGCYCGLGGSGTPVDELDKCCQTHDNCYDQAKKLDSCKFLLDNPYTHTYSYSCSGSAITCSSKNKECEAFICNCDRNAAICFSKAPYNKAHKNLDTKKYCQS

Aminopeptidase N = molecular target: T3, Aminopeptidase N (Plasmodium falciparum FcB1/Columbia, UniProt O96935); assay: P. falciparum M1AAP inhibitors, biochemical, fluorogenic H-Leu-NHMec substrate, 1536-well (AID 1445); parameters: species or system Plasmodium falciparum 3D7, 3D7
T3 sequence (O96935 whole entry): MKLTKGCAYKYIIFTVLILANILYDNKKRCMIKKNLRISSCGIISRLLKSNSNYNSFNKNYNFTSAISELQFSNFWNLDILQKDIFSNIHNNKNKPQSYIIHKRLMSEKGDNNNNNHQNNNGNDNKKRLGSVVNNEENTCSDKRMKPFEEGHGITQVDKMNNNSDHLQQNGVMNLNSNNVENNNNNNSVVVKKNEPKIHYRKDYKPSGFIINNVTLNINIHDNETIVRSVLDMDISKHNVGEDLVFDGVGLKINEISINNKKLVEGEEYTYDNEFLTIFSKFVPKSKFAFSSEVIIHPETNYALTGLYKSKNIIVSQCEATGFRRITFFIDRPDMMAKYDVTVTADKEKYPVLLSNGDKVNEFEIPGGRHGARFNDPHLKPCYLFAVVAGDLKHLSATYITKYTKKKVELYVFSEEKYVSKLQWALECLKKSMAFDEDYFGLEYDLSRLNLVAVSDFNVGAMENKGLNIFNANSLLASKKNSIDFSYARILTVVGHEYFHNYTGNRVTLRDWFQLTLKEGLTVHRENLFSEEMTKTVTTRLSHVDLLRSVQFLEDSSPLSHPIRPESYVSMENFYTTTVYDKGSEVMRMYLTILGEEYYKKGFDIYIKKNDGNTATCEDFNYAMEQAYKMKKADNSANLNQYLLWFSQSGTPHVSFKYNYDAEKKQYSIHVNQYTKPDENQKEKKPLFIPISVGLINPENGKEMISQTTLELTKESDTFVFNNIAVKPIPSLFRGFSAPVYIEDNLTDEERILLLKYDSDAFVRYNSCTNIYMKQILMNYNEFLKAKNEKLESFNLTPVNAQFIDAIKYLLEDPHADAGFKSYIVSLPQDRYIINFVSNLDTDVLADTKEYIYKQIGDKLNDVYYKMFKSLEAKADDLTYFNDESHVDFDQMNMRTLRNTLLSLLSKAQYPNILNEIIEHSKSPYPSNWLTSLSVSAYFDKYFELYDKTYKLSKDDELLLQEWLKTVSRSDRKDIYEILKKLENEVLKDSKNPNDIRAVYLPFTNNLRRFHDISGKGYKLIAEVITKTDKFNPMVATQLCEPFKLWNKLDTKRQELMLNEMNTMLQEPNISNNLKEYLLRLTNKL

Cytochrome P450 2D6 = Cytochrome P450 2D6 (Homo sapiens, UniProt P10635);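 note: CYP2D6 member of a cytochrome P450 panel assay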
Cytochrome P450 2D6, sequence (P10635 whole entry): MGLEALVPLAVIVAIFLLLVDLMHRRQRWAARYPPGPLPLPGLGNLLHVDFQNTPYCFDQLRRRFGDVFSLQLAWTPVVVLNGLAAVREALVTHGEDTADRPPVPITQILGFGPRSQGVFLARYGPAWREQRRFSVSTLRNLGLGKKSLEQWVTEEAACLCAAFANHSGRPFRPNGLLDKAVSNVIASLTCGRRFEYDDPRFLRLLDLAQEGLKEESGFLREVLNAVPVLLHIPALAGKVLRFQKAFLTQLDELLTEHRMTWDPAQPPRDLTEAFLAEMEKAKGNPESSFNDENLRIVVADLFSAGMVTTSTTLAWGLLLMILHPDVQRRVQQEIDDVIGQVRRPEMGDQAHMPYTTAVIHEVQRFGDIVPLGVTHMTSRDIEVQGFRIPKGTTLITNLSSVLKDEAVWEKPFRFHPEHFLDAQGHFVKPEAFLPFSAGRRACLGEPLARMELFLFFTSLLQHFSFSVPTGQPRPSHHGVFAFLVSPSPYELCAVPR

Cytochrome P450 2C19 = Cytochrome P450 2C19 (Homo sapiens, UniProt P33261); assay: Cytochrome panel assay with activity outcomes. Panel member name: p450-cyp2c19 Compounds with AC50 equal or less than 10 uM are considered active; type: functional; details: read-out: AC50
Cytochrome P450 2C19, sequence (P33261 whole entry): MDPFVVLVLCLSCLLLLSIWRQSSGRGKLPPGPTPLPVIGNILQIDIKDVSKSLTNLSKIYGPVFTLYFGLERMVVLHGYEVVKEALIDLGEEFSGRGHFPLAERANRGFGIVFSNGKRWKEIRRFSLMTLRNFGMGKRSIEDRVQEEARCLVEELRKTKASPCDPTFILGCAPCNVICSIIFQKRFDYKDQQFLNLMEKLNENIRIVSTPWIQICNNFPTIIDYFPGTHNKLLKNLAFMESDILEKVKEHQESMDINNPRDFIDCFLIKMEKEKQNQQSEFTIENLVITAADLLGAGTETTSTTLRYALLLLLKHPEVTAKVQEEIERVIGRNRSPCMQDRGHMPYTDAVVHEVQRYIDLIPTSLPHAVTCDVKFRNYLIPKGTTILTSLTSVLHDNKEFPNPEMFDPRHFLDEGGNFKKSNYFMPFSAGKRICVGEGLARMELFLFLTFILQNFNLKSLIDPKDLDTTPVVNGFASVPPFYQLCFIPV

Cytochrome P450 2C9 = Cytochrome P450 2C9 (Homo sapiens, UniProt P11712)
Cytochrome P450 2C9, sequence (P11712 whole entry): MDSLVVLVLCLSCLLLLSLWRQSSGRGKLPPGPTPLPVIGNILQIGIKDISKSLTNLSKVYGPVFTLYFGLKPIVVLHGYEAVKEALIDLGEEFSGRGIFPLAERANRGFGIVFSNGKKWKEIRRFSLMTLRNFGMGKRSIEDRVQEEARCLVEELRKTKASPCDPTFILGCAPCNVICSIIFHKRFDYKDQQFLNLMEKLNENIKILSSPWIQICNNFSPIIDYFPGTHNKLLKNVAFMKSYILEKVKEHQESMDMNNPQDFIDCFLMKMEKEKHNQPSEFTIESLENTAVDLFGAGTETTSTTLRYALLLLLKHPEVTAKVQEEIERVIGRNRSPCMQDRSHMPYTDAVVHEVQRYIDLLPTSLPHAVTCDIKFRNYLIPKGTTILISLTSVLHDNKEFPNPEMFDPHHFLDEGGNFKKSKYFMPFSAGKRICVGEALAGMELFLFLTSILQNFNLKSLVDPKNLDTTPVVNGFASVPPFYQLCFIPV

[6] = Shn3 3'UTR reporter inhibitors, dose response, cell-based, Clone20 osteoblasts, firefly luciferase, cherry-picked (AID 624132); type: functional;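 note: firefly luciferase luminescence from reporter carrying the Shn3 3'UTR in osteoblasts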
[7] = control 3'UTR Renilla luciferase suppression, dose response, counter-screen for Shn3 inhibitor project, cell-based, Clone20-Shn3RL, cherry-picked (AID 624133); type: functional
HEK293 [8] = assay: NOD1 signaling inhibitors, primary screen, cell-based, luminescence, uHTS (AID 1578); type: functional; details: Homo sapiens
HEK293 [9] = assay: cells; type: functional, cell-based; details: Homo sapiens
HEK293 [10] = assay: cells; type: functional, cell-based; details: Homo sapiens; remark: listed apart in the source
[11] = HepG2 cell cytotoxicity, dose response, cytotoxicity control for Shn3 inhibitor project, CellTiter-Glo, cherry-picked (AID 624134); type: functional, cell-based
HEK293 [12] = assay: NOD2 signaling inhibitors in MDP-stimulated cells, cell-based, uHTS, luminescence (AID 2001); type: functional; details: Homo sapiens
Fatty acid synthase [13] = molecular target: T4, Fatty acid synthase (Homo sapiens, UniProt P49327); assay: FAS thioesterase domain inhibitors, dose response, biochemical, endpoint fluorescence intensity, uHTS hits (AID 624327); type: functional;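 note: fluorescence from hydrolysis of an O-methyl fluorescein acyl ester substrate by the enzyme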
T4 sequence (P49327 whole entry, the tested form may be a part): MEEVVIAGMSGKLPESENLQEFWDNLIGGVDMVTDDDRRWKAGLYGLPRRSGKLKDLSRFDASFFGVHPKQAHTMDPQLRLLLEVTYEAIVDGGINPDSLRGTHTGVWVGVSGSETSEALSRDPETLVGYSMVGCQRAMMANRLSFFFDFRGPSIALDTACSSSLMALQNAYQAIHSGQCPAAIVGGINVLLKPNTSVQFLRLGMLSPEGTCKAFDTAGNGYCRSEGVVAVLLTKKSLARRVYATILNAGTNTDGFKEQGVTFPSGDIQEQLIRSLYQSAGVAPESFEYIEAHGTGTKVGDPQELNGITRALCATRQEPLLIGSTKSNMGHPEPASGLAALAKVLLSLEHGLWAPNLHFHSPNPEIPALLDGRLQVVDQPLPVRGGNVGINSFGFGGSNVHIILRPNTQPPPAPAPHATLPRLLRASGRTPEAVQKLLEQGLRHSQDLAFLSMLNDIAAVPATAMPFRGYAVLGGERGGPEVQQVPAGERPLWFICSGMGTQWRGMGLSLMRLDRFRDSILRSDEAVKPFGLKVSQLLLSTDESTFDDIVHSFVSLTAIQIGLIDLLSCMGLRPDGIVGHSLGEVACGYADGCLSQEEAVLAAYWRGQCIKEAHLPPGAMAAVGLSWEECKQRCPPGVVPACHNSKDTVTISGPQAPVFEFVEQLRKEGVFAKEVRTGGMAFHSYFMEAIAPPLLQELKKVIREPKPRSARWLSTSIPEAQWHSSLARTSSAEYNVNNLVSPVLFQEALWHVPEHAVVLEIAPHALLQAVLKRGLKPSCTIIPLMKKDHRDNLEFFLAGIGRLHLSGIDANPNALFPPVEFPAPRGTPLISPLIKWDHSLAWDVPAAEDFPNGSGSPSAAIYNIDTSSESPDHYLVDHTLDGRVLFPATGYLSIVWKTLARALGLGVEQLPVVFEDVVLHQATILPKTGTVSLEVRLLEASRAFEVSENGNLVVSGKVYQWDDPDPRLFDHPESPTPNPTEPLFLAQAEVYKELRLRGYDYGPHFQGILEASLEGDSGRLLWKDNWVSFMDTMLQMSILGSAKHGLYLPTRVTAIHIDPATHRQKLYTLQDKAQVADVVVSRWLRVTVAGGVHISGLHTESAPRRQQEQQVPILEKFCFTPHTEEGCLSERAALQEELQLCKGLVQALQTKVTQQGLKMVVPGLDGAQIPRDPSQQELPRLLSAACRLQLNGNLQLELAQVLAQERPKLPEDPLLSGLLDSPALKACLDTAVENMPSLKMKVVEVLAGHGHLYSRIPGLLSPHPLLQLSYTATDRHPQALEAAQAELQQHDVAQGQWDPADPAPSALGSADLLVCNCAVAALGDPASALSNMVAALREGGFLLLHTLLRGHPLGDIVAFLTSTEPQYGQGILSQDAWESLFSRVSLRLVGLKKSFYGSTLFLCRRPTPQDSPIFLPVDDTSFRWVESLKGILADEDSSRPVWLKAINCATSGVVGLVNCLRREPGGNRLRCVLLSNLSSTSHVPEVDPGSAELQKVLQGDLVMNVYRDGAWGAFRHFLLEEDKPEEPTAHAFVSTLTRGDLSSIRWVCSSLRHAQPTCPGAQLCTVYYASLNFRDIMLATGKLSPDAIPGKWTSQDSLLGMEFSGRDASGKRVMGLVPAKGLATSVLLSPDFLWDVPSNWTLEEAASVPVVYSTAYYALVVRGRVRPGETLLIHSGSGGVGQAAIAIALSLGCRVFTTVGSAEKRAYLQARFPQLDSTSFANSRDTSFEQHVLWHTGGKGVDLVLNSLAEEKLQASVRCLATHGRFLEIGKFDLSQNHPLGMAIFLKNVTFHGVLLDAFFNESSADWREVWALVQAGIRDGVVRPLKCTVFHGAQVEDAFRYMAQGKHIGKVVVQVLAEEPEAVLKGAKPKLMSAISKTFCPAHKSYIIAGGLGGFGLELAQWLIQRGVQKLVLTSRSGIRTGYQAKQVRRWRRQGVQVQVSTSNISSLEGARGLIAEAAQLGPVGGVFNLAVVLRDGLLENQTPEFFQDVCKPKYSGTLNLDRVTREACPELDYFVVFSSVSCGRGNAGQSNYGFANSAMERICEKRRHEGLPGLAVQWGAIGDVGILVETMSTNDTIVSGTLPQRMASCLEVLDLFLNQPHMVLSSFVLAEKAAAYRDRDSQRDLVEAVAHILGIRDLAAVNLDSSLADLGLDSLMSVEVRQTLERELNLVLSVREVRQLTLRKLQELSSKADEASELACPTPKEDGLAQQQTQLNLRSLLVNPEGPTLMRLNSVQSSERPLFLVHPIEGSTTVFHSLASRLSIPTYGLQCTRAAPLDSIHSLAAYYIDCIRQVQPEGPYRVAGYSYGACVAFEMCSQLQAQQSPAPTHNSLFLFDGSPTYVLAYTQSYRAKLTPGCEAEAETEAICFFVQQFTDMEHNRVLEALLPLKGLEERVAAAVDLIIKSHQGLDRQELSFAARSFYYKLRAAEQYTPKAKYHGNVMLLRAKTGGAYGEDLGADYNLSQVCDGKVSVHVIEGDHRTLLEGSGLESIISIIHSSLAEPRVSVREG

Fatty acid synthase [14] = molecular target: T4, Fatty acid synthase; assay: FAS thioesterase domain inhibitors, dose response, biochemical, kinetic fluorescence intensity (AID 624326); type: functional;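 note: rate of fluorescence rise from hydrolysis of a fluorogenic O-methyl fluorescein ester substrate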
[15] = cytotoxicity in HEK-293T cells, dose response, cytotoxicity control for TCR NF-kB inhibitor project, luminescence, T-cell screen hits (AID 489026); type: functional, cell-based;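 note: cells exposed to compound about 14 hours before the viability readout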
[16] = A Cell Based Secondary Assay To Explore Cytotoxicity of Compounds that Sensitize Mycobacterium Tuberculosis to Beta-Lactam Antibiotics.; type: functional
Streptococcus = assay: Group A Streptococcus viability loss, dose response, counter-screen for streptokinase expression inhibitor project, luminescence, BacTiterGlo (AID 1915); type: functional, organism-based;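 note: potency for reduction of bacterial viability or growth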
Streptokinase A = molecular target: T5, Streptokinase A (Streptococcus pyogenes serotype M1, UniProt P10520); assay: S. pyogenes streptokinase expression inhibitors, potency, dose response, plasminogen activation absorbance, OD405 (AID 1914); type: functional, Streptococcus pyogenes M1 GAS;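 note: secreted streptokinase activity via plasminogen activation per viability signal from cell pellet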
T5 sequence (P10520 whole entry): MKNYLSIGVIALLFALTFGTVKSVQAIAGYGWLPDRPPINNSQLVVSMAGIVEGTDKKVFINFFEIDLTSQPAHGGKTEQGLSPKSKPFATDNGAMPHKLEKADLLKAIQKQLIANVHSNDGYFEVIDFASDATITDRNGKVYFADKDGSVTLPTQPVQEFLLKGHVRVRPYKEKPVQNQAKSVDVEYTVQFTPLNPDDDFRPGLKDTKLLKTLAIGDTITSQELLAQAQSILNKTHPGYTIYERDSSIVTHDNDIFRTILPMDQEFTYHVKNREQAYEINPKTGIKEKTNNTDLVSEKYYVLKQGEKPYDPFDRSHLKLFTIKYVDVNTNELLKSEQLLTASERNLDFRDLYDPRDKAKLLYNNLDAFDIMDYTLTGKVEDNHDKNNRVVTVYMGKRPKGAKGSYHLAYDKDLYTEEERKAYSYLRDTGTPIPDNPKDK

[17] = test system: Streptococcus sp. 'group A'; assay: growth inhibition of control SK(-) GAS strain, dose response, counter-screen for streptokinase expression inhibitor project, luminescence, kanamycin, BacTiterGlo, confirmation (AID 1900); type: functional, organism-based
[18] = Luminescence Cell-Based Dose Retest to Confirm Inhibitors of Cancer Stem Cells. [Related pubchem assays (depositor defined):AID2717, AID2721]; type: functional; details: Homo sapiens
cells = type: functional
[19] = THP-1 cell cytotoxicity, dose response, cytotoxicity control for non-replicating M. tuberculosis project (AID 489025); type: functional
[20] = molecular target: T6, DNA repair protein RAD52 homolog (Homo sapiens, UniProt P43351); type: functional, biochemical
T6 sequence (P43351 whole entry): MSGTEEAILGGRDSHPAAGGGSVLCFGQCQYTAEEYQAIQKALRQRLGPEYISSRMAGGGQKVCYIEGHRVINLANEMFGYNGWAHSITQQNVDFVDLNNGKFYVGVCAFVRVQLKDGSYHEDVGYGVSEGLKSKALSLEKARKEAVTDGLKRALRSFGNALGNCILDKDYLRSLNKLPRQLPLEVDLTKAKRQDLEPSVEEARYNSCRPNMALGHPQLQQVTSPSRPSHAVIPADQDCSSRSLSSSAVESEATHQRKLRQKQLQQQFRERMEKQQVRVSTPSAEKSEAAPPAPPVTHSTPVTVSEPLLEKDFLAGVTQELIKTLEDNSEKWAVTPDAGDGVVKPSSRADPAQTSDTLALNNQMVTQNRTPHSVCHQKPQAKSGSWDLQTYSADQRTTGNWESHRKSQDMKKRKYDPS

c1ccc(CCNc2ncnc3ccccc23)cc1
IC50 [1]: > 80 µM (inactive)
AC50 (INS1): 1.05 µM (active)

COc1ccccc1N1CCN(C(c2cccs2)c2nnnn2C2CCCC2)CC1 (stereo not drawn)
EC50 [2]: 6.33 µM (active)

CCOC(=O)c1cnc2c(C(F)(F)F)cccc2c1N1CCOCC1
IC50 [3]: 13.5 µM (active)

O=S(=O)(c1ccc(F)cc1)c1nc(-c2ccccc2F)oc1N1CCCCC1
EC50 [4]: 1.87 µM (active)
IC50 (Cysteine protease ATG4B): 19.1 µM (active)
EC50 [5]: > 30 µM (not active)
IC50 (Phospholipase A2): 12.3 µM (active)

CC1CCN(C(=O)CCCOc2cc(=O)n(C)c3ccccc23)CC1
IC50 [1]: > 80 µM (inactive)

O=S(=O)(Nc1nc2cc3c(cc2nc1Cl)OCCO3)c1ccccc1
IC50 (Aminopeptidase N): 66.8 µM (active)

COc1ccc(C(C(=O)NC2CCCCC2)N(C(=O)c2sc(C)nc2C)c2ccc(C(C)=O)cc2)cc1 (stereo not drawn)
AC50 (Cytochrome P450 2D6): inconclusive

CCN1C(=O)[C@H]2[C@@H]3[C@H](O)C=CC(=O)[C@H]3CC[C@H]2C1=O
AC50 (Cytochrome P450 2D6): inconclusive

COc1cc(C(=O)NC(=S)Nc2ccc3oc(=O)ccc3c2)cc(OC)c1OC
AC50 (Cytochrome P450 2D6): inconclusive

O=C(NNS(=O)(=O)c1ccc(Cl)cc1)c1cc(-c2ccccc2)nc2ccccc12
IC50 (Aminopeptidase N): 36.5 µM (active)

CN1C(=O)CC(c2ccco2)Sc2ccccc21 (stereo not drawn)
IC50 [1]: > 80 µM (inactive)

O=C(O)C1CCN(c2c([N+](=O)[O-])cc(C(F)(F)F)cc2[N+](=O)[O-])CC1
AC50 (Cytochrome P450 2C19): 14.1 µM (inconclusive)
AC50 (Cytochrome P450 2C9): 35.5 µM (inconclusive)
AC50 (Cytochrome P450 2D6): inconclusive

Cc1ccccc1N(CC(=O)NC1CCCC1)C(=O)C[S+]([O-])CC(=O)Nc1ccc2c(c1)OCO2 (stereo not drawn)
IC50 (Aminopeptidase N): 63.9 µM (active)

Cn1c(SCC(=O)N2CCCc3ccccc32)nc2ccccc2c1=O
AC50 [6]: 3.46 µM (active)
AC50 [7]: 4.04 µM (active)
EC50 (HEK293 [8]): 4.77 µM (active)
IC50 (HEK293 [9]): 13.5 µM (active)
IC50 (HEK293 [10]): 5.85 µM (active)
AC50 [11]: 43.6 µM (active)
IC50 (HEK293 [12]): 6.57 µM (active)

O=C(NCc1ccc2c(c1)OCO2)c1cc([N+](=O)[O-])ccc1N1CCOCC1
IC50 (Fatty acid synthase [13]): 11.5 µM (active)
IC50 (Fatty acid synthase [14]): 8.35 µM (active)
IC50 [15]: > 80 µM (inactive)

CC(C)c1ccc(NC2CCCN(C(=O)c3cnn(C(C)C)c3)C2)cc1 (stereo not drawn)
IC50 (Cysteine protease ATG4B): 9.04 µM (active)
IC50 (Phospholipase A2): 6.21 µM (active)

COCCn1c(C)cc2c(c1=O)C(c1ccccc1F)C(C#N)=C(N)O2 (stereo not drawn)
AC50 (Cytochrome P450 2C9): 17.8 µM (inconclusive)
AC50 (Cytochrome P450 2D6): inconclusive

CC12CCC(C/C1=N\NC1=NC(=O)/C(=C\c3cccc(Br)c3)S1)C2(C)C (stereo not drawn)
CC50 [16]: > 40 µM (active)
EC50 (Streptococcus): 2.89 µM (active)
EC50 (Streptokinase A): > 150 µM (not active)
EC50 [17]: 0.343 µM (active)
AC50 [18]: 1.95 µM (active)

N=C(N)Nc1nc(-c2ccccc2)c2ccccc2n1
EC50 [4]: 0.142 µM (active)
EC50 [5]: > 60 µM (not active)
IC50 (cells): 34.5 µM (active)
CC50 [19]: 21.2 µM (active)
AC50 [20]: 16.6 µM (active)
